# Measured values as given in patent publication US20070253961A1, “Pharmaceutical Composition Comprising the Anti-4-1Bb Antibody for Treating or Preventing Rheumatoid Arthritis” (ULSAN INDUSTRIAL EDUCATION FOUNDATION, priority 2003, published 2007).
# Test system: CIA
# Experiment: 1-MT (IDO inhibition) reversal of 4-1BB-mediated suppression of CIA
# Assay type: in vivo, mice
# Procedure: Each mouse was injected with 200[…] of purified anti-4-1BB (3H3, rat IgG1), anti-4-1BBL (TKS-1, rat IgG1), or control rat IgG i.p. on PI days 0, 2, 4, 6, and 8. We tested the dose response of the antibodies in vivo by measuring serum IFN-γ levels for anti-4-1BB and suppression of the recall response for anti-4-1BBL. […] To treat established CIA, the mice were injected on PI days 28, 30, 32, 34, and 36. To block IFN-γ mice were injected i.p. every 4 days with 500[…] of purified R4-6A2 on PI days 0, 4, 8, and 12. Rat IgG again served as a control.
# To inhibit IDO activity, slow-release polymer pellets impregnated with 1-MT (10 mg/day release rate) or placebo pellets (Innovative Research of America, Sarasota, Fla.) were implanted under the dorsal skin 1 day before the immunization. […] Because of the large size of these pellets relative to the small size of the mice, additional experiments were conducted with the implantation of two smaller pellets (10 mg/day release rate) per mouse, each containing 120 mg 1-MT, for a dose of 20 mg/day for 12 days. On day 13, two more pellets were implanted, for a total dosage period of 24 days.
structure (smiles),measurement,setting,value
"Cn1cc(CC(N)C(=O)O)c2ccccc21 (racemic) [1-MT, 1-methyl D,L-tryptophan]",reversal of suppressive effect of anti-4-1BB on CIA,"5 mg/day 1-MT, with anti-4-1BB",incomplete
same,suppressive effect of anti-4-1BB on CIA,"20 mg/day dose of 1-MT, slow-release pellets, with anti-4-1BB",completely reversed
same,time of appearance of CIA after 1-MT reversal,"1-MT with anti-4-1BB, 'in these experiments'",at the same time as in the control mice
same,day disease became evident,"1-MT-treated mice with 3H3, control mice first showed signs on PI day 30",48 PI day
